Data taken from patent publication US9416139B2, “Spiro ring compound as hepatitis C virus (HCV) inhibitor and uses thereof” (SUNSHINE LAKE PHARMA CO., LTD., priority 2012, dated 2016).
Read-outs that look alike come from different tables or passages of the source.

Columns and labels:
[1] = tested on: HCV 1a replicon; assay: HCV GT1a replicon assay in Huh-7 cells; assay type: cell-based, Hepatitis C virus; conditions: Huh-7 cells transfected with HCV replicon, 72 hours incubation, read-out: EC50 against HCV 1a genotype
Description: (§1) HCV Replicon System was utilized as an evaluation model in the present disclosure for verifying the effects of the compounds disclosed herein on HCV. An HCV Replicon assay was first described in Science, 1999, 285 (5424), 110-3. […] To determine the potential anti-HCV effects of the test compounds, luciferase assay and antibiotic Neomycin resistance gene were tested according to the method described in Science. 1999 Jul. 2; 285 (5424), 110-3 and J. Virol. 2003 March; 77 (5), 3007-19.
(§2) In a word, the compounds disclosed herein were tested by using human hepatic carcinoma cell line which is transfected stably HCV GT1a, GT1b or GT2a replicon respectively, and resistant cells Y93H, L31F, P32L or I302V and wild-type cells HCV 1b. HCV Replicon System disclosed herein containing Neomycin resistance gene and Luciferase Reporter Gene, the level of HCV replication in host cells is characterized by the expression level of the NEO gene expression level or Luciferase Reporter Gene, and the effects of the compounds herein inhibit HCV replication can be evaluated. In this article, a real-time quantitative polymerase chain reaction (qPCR) method was used to detect NEO gene expression level, and chemiluminescence method was used to test Luciferase Reporter Gene expression level.
(§3) 1. Test Method for Measuring EC50 of the Compounds Base on Luciferase Assay.
(§4) The Huh-7 cells transfected with HCV replicons system were seeded into 96-well plates (8,000 cells in 125 μL/well) respectively; each test compound was diluted to desired concentration using 5-fold serial dilutions protocol, 10 doses in duplicate, and added to wells with POD™ 810 Plate Assembler. […] In this paper, experiments were repeated twice and set the holes without compounds as negative control.
(§5) 2. Test Method for Measuring EC50 of the Compounds by Detecting Antibiotic G418 Resistance Gene NEO Gene.
(§6) In this paper, experiments were repeated twice and set the holes without compounds as negative control.

[2] = tested on: HCV 1b replicon; assay: HCV GT1b replicon assay in Huh-7 cells; assay type: cell-based, Hepatitis C virus; conditions: Huh-7 cells transfected with HCV replicon, 72 hours incubation, read-out: EC50 against HCV 1b genotype
Description: as §1, §2, §3, §4, §5, §6

SMILES | EC50 [1] [nM] | EC50 [2] [nM] | EC50 ([1]; Hepatitis C virus) [nM] | EC50 ([2]; Hepatitis C virus) [nM]
COC(=O)N[C@H](C(=O)N1C[C@@H](C)C[C@H]1n1cnc(-c2ccc(-c3ccc(-c4ccc5nc([C@@H]6C[C@H](C)CN6C(=O)[C@@H](NC(=O)OC)C(C)C)[nH]c(=O)c5c4)c4c3CC3(CCCC3)C4)cc2)c1)C(C)C [Example 17] | 0.023 | 0.006 | – | –
COC(=O)NC(C(=O)N1CCC[C@@H]1c1ncc(-c2ccc(-c3ccc(-c4ccc5nc([C@@H]6CCCN6C(=O)[C@@H](NC(=O)OC)C(C)C)[nH]c(=O)c5c4)c4c3CC3(CCCC3)C4)cc2)[nH]1)C(C)C (stereo partly shown) [Example 34] | – | – | 0.641 | 0.055
COC(=O)N[C@H](C(=O)N1CCC[C@H]1C1=Nc2cc(-c3ccc(-c4ccc(-c5cnc([C@@H]6CCCN6C(=O)[C@@H](NC(=O)OC)C(C)C)[nH]5)cc4)c4c3CC3(CCCC3)C4)ccc2C(C)(C)N1)C(C)C [Example 3] | – | – | 0.537 | 0.04
COC(=O)N[C@H](C(=O)N1CCC[C@H]1c1ncc(-c2ccc(-c3ccc(-c4ccc5nc([C@@H]6CCCN6C(=O)[C@@H](NC(=O)OC)C6CCCCC6)[nH]c(=O)c5c4)c4c3CC3(CCCC3)C4)cc2)[nH]1)C1CCCCC1 [Example 15] | – | – | 0.206 | 0.142
COC(=O)N[C@H](C(=O)N1CCC[C@H]1c1ncc(-c2ccc(-c3ccc(-c4ccc5nc([C@@H]6CC7CC7N6C(=O)[C@@H](NC(=O)OC)C(C)C)[nH]c(=O)c5c4)c4c3CC3(CCCC3)C4)c3cnoc23)[nH]1)C(C)C (stereo partly shown) [Example 27] | – | – | 1.53 | 0.323
COC(=O)N[C@H](C(=O)N1CCC[C@H]1c1ncc(-c2ccc(-c3ccc(-c4ccc5nc([C@@H]6CCCN6C(=O)[C@@H](NC(=O)OC)c6ccccc6)[nH]c(=O)c5c4)c4c3CC3(CCCC3)C4)cc2)[nH]1)c1ccccc1 [Example 13] | – | – | 2.07 | 0.273
COC(=O)N[C@H](C(=O)N1CCC[C@H]1c1ncc(-c2ccc(-c3sc(-c4ccc5nc([C@@H]6CCCN6C(=O)[C@@H](NC(=O)OC)C(C)C)[nH]c5c4)c4c3CC3(CCCC3)C4)c3cnoc23)[nH]1)C(C)C [Example 32] | – | – | 10.3 | 0.446
COC(=O)N[C@H](C(=O)N1CCC[C@H]1c1ncc(C#Cc2ccc(-c3ccc4nc([C@@H]5CCCN5C(=O)[C@@H](NC(=O)OC)C(C)C)[nH]c(=O)c4c3)c3c2CC2(CCCC2)C3)[nH]1)C(C)C [Example 7] | – | – | 0.21 | 0.103
COC(=O)NC(C(=O)N1CCCC1c1cc(=O)c2cc(-c3ccc(-c4ccc(-c5cnc(C6CCCN6C(=O)C(NC(=O)OC)C(C)C)[nH]5)cc4)c4c3CC3(CCCC3)C4)ccc2[nH]1)C(C)C (stereo not shown) [Example 35] | – | – | 10.6 | 0.103
COC(=O)N[C@H](C(=O)N1CCC[C@H]1C1=Nc2cc(-c3cnc(-c4ccc(-c5cnc([C@@H]6CCCN6C(=O)[C@@H](NC(=O)OC)C(C)C)[nH]5)cc4)c4c3CC3(CCCC3)C4)ccc2S(=O)(=O)N1)C(C)C [Example 29] | – | – | 0.061 | 0.009
COC(=O)N[C@H](C(=O)N1CCC[C@H]1C(=O)Nc1ccc(-c2ccc(-c3ccc4nc([C@@H]5CCCN5C(=O)[C@@H](NC(=O)OC)C(C)C)[nH]c(=O)c4c3)c3c2CC2(CCCC2)C3)cc1)C(C)C [Example 20] | – | – | 3.67 | 0.685
COC(=O)N[C@H](C(=O)N1CC(C)(C)C[C@H]1c1ncc(-c2ccc(-c3ccc(-c4ccc5nc([C@@H]6CC(C)(C)CN6C(=O)[C@@H](NC(=O)OC)C(C)C)[nH]c(=O)c5c4)c4c3CC3(CCCC3)C4)cc2)[nH]1)C(C)C [Example 18] | – | – | 0.326 | 0.065
COC(=O)N[C@H](C(=O)N1CCC[C@H]1c1nc2ccc(-c3ccc(-c4ccc5nc([C@@H]6CCCN6C(=O)[C@@H](NC(=O)OC)C(C)C)[nH]c(=O)c5c4)c4c3CC3(CCCC3)C4)cc2c(=O)[nH]1)C(C)C [Example 6] | – | – | 0.109 | 0.077
COC(=O)N[C@H](C(=O)N1C[C@@H](F)C[C@H]1c1nc(-c2ccc(-c3ccc(-c4ccc5nc([C@@H]6C[C@H](F)CN6C(=O)[C@@H](NC(=O)OC)C(C)C)[nH]c(=O)c5c4)c4c3CC3(CCCCC3)C4)cc2)c[nH]1)C(C)C [Example 9] | – | – | 0.439 | 0.072
COC(=O)N[C@H](C(=O)C1CCCC[C@H]1c1nc2ccc(-c3ccc(-c4ccc(-c5cnc(C6CCCCN6C(=O)[C@@H](NC(=O)OC)C(C)C)[nH]5)cc4)c4c3CC3(CCCC3)C4)cc2c(=O)[nH]1)C(C)C (stereo partly shown) [Example 16] | – | – | 0.089 | 0.036
COC(=O)N[C@@H](C)C(=O)N1CCC[C@H]1c1ncc(-c2ccc(-c3ccc(-c4ccc5nc([C@@H]6CCCN6C(=O)[C@H](C)NC(=O)OC)[nH]c(=O)c5c4)c4c3CC3(CCCC3)C4)cc2)[nH]1 [Example 14] | – | – | 0.884 | 0.013
CCC(C)[C@H](NC(=O)OC)C(=O)N1CCC[C@H]1c1nc(=O)c2cc(-c3ccc(-c4ccc(-c5cnc([C@@H]6CCCN6C(=O)[C@@H](NC(=O)OC)C(C)C)[nH]5)cc4)c4c3CC3(CCCCC3)C4)ccc2[nH]1 (stereo partly shown) [Example 8] | – | – | 0.982 | 0.065
COC(=O)N[C@H](C(=O)N1CCC[C@H]1c1ncc(-c2ccc(-c3sc(-c4ccc5nc([C@@H]6CCCN6C(=O)[C@@H](NC(=O)OC)C(C)C)[nH]c(=O)c5c4)c4c3CC3(CCCC3)C4)cc2)[nH]1)C(C)C [Example 28] | – | – | 1.1 | 0.763
CC(C)[C@H](NC(=O)Oc1ccccc1)C(=O)N1CC(C)(C)C[C@H]1c1ncc(-c2ccc(-c3ccc(-c4ccc5nc([C@@H]6CC(C)(C)CN6C(=O)[C@@H](NC(=O)Oc6ccccc6)C(C)C)[nH]c(=O)c5c4)c4c3CC3(CCCC3)C4)cc2)[nH]1 [Example 19] | – | – | 4.77 | 0.436
COC(=O)N[C@H](C(=O)N1CC2(C[C@H]1c1ncc(-c3ccc(-c4ccc(-c5ccc6nc([C@@H]7CCCN7C(=O)[C@@H](NC(=O)OC)C(C)C)[nH]c(=O)c6c5)c5c4CC4(CCCC4)C5)cc3)[nH]1)OCCO2)C(C)C [Example 24] | – | – | 0.475 | 0.099
COC(=O)N[C@H](C(=O)N1CCC[C@H]1c1ncc(-c2ccc(-c3ccc(-c4ccc5nc([C@@H]6CC7CC7N6C(=O)[C@@H](NC(=O)OC)C(C)C)[nH]c(=O)c5c4)c4c3CC3(CCCC3)C4)c3c2CCC3)[nH]1)C(C)C (stereo partly shown) [Example 25] | – | – | 0.829 | 0.103
COC(=O)N[C@H](C(=O)N1CCC[C@H]1c1ncc(-c2ccc(-c3ccc(-c4ccc5nc([C@@H]6CC7CC7N6C(=O)[C@@H](NC(=O)OC)C(C)C)[nH]c(=O)c5c4)c4c3CC3(CCCC3)C4)c3ccccc23)[nH]1)C(C)C (stereo partly shown) [Example 26] | – | – | 0.727 | 0.216
COC(=O)N[C@H](C(=O)N1CCC[C@H]1c1ncc(-c2ccc(-c3ncc(-c4ccc5nc([C@@H]6CCCN6C(=O)[C@@H](NC(=O)OC)C(C)C)[nH]c5c4)c4c3CC3(CCCC3)C4)c3c2CCC3)[nH]1)C(C)C [Example 30] | – | – | 0.336 | 0.052
COC(=O)N[C@H](C(=O)N1CCC[C@H]1c1ncc(-c2ccc(-c3ncc(-c4ccc5nc([C@@H]6CCCN6C(=O)[C@@H](NC(=O)OC)C(C)C)[nH]c5c4)c4c3CC3(CCCC3)C4)c3ccccc23)[nH]1)C(C)C [Example 31] | – | – | 5.87 | 0.539
COC(=O)N[C@H](C(=O)N1CCC[C@H]1C1=Nc2cc(-c3ccc(-c4ccc(-c5cnc([C@@H]6CCCN6C(=O)[C@@H](NC(=O)OC)C(C)C)[nH]5)cc4)c4c3CC3(CCCC3)C4)ccc2C2(COC2)N1)C(C)C [Example 4] | – | – | 0.089 | 0.016
COC(=O)N[C@H](C(=O)N1CC2(CC2)C[C@H]1c1ncc(-c2ccc(-c3ccc(-c4ccc5nc([C@@H]6CC7(CC7)CN6C(=O)[C@@H](NC(=O)OC)C(C)C)[nH]c(=O)c5c4)c4c3CC3(CCCC3)C4)cc2)[nH]1)C(C)C [Example 21] | – | – | 0.08 | 0.029
COC(=O)N[C@H](C(=O)N1CCC[C@H]1c1cc(=O)c2cc(-c3ccc(-c4ccc(-c5cnc([C@@H]6CCCN6C(=O)[C@@H](NC(=O)OC)C(C)C)[nH]5)cc4)c4c3CC3(CCCC3)C4)ccc2[nH]1)C(C)C [Example 2] | – | – | 1.28 | 0.087
COC(=O)N[C@H](C(=O)N1[C@@H]2CC[C@@H](C2)[C@H]1c1ncc(-c2ccc(-c3ccc(-c4ccc5nc([C@@H]6[C@H]7CC[C@H](C7)N6C(=O)[C@@H](NC(=O)OC)C(C)C)[nH]c(=O)c5c4)c4c3CC3(CCCC3)C4)cc2)[nH]1)C(C)C [Example 23] | – | – | 0.31 | 0.047
COC(=O)N[C@H](C(=O)N1CCC[C@H]1C1=Nc2cc(-c3ccc(-c4ccc(-c5cnc([C@@H]6CCCN6C(=O)[C@@H](NC(=O)OC)C(C)C)[nH]5)cc4)c4c3CC3(CCCC3)C4)ccc2S(=O)(=O)N1)C(C)C [Example 5] | – | – | 0.078 | 0.023
